Marks after values point to notes of the source that are not given here.
Tests used:
C57BL/6J mice [1] = test: Body weight and visceral fat weight of mice fed high-fat diet containing camphene; format: in vivo, mouse; conditions: 0.2% camphene in high-fat diet, 10 weeks
Method: (§1) The obesity-inducing diet used in this example was high-fat diet (HFD: 40% fat calorie, 17 g lard+3% corn oil/100 g diet). Camphene-containing diet had the same composition as HFD, except that camphene was included at 0.2%. Normal diet (ND) was prepared with the composition of AIN-76 rodent diet (American Institute of Nutrition, Report of the American Institute of Nutrition ad hoc committee on standards for nutritional studies. J. Nutr. 107: 1340-1348, 1977) (see Table 1). (±)-Camphene was purchased from Sigma-Aldrich. [table] 5-week-old male C57BL/6J mice (Orient, Korea) were accustomed to the laboratory environment for 1 week while feeding solid feed. Then, they were randomly divided into high-fat diet control group and test group and bred for a total of 10 weeks. The diet was given between 10 and 11 a.m. every day together with water. Diet intake was measured every day and body weight was measured once in 3 days. In order to avoid transient body weight increase after feed intake, body weight was measured 2 hours after removing the feed. Feeding efficiency was calculated by dividing accumulated body weight gain during the test period, i.e. from the test diet was given first until the day when the mouse was sacrificed, by total diet intake. After fasting the test animal for at least 12 hours and anesthetizing with diethyl ether, blood, liver and visceral fat (epididymal fat, perirenal fat, mesenteric fat and retroperitoneal fat) were taken and weighed after washing with 0.1 M PBS (pH 7.4). Blood taken from the abdominal aorta was centrifuged at 1000×g for 15 minutes to separate the serum.

[2] = tested on: Gram-positive bacteria, Gram-negative bacteria and fungi; conditions: cited from earlier work
IL-6 = test: RT-PCR mRNA expression in visceral fat tissue: IL-6; format: in vivo, mouse; conditions: versus HFD group, FIGS. 6a and 6b
Method: (§2) After adding 1 mL of TRIzol solution per 0.1 g of epididymal fat tissue, centrifugation was performed at 4° C. and 12,000×g for 10 minutes. The supernatant was transferred to a fresh tube and vortexed after adding 200 μL of chloroform. After repeating this procedure twice, the supernatant was transferred to a fresh tube and isopropanol was added to the supernatant at a ratio of 1:1. After shaking strongly for 10 times and keeping at room temperature for 10 minutes, centrifugation was performed at 4° C. and 12,000×g for 10 minutes. After removing the supernatant and adding 1 mL of 70% ethanol to the remaining pellets, centrifugation was performed at 4° C. and 7,500×g for 5 minutes. After removing ethanol, the RNA pellets held in the tube were dried at room temperature for 5 minutes and dissolved using nuclease-free water. The concentration of the extracted RNA was measured at 260 nm and 280 nm using a UV/VIS spectrophotometer (Beckman Coulter, DU730), and the integrity of RNA was analyzed by agarose gel electrophoresis.
(§3) cDNA was synthesized by performing reverse transcription for the RNA sample extracted from the epididymal fat tissue using oligo-dT primer and SuperScript reverse transcriptase (GIBCO BRL, Gaithersburg, Md., USA). […]

NF-κB = conditions: mouse macrophage cells (RAW 264.7); cited from earlier work
C57BL/6J mice [3] = test: Obesity-related biochemical indices in liver tissue of high-fat diet mice; format: in vivo, mouse; conditions: 10 weeks
Method: as §1, with “Sigma-Aldrich.” for “Sigma-Aldrich. [table]”, “serum. Total cholesterol, triglyceride and glucose levels in the serum were measured twice for each using a commercially available kit (Bio Clinical system), and insulin level was measured by ELISA using a mouse insulin kit (Shibayaki, Japan). Lipids were extracted from the liver tissue according to Folch et al.'s method. After adding 1 mL of distilled water to 0.25 g of liver tissue, the liver tissue was homogenized using a Polytron homogenizer (IKA-Werke GmbH & Co., Ultra-Turrax, Staufen, Germany). After adding 5 mL of chloroform:methanol solution (2:1, v/v) to the homogenate and mixing well, the mixture was centrifuged at 1000×g for 10 minutes. After adding 2 mL of chloroform:methanol solution (2:1, v/v) again to the supernatant, the same procedure was repeated to completely separate the lipid components of the liver. After adding 3 mL of chloroform:methanol:0.05% CaCl2 (3:48:47, v/v/v) solution to the remaining pellets and mixing well for 1 minute, followed by centrifugation at 1000×g for 10 minutes, the resulting pellets were completely dried with nitrogen gas. The dried lipids were dissolved in 1 mL of methanol and then analyzed. The same kit (Bio Clinical system) as the one used for the serum analysis was used to measure the triglyceride level of the liver tissue.” for “serum.”

PPARγ2 = test: RT-PCR mRNA expression in epididymal (visceral) fat tissue: PPARγ2; format: in vivo, mouse; conditions: as compared to the high-fat diet group, FIGS. 5a and 5b
Method: as §2, §3

TNFα = test: RT-PCR mRNA expression in visceral fat tissue: TNFα; format: in vivo, mouse; conditions: versus HFD group, FIGS. 6a and 6b
Method: as §2, §3

C/EBPα = test: RT-PCR mRNA expression in epididymal (visceral) fat tissue: C/EBPα; format: in vivo, mouse; conditions: as compared to the high-fat diet group, FIGS. 5a and 5b
Method: as §2, §3

UCP3 = test: RT-PCR mRNA expression in visceral fat tissue: UCP3; format: in vivo, mouse; conditions: versus HFD group, FIG. 7
Method: as §2, §3

UCP1 = test: RT-PCR mRNA expression in visceral fat tissue: UCP1; format: in vivo, mouse; conditions: versus HFD group, FIG. 7
Method: as §2, §3

aP2 = test: RT-PCR mRNA expression in epididymal (visceral) fat tissue: aP2; format: in vivo, mouse; conditions: as compared to the high-fat diet group, FIGS. 5a and 5b
Method: as §2, §3

3T3-L1 cells = test: Suppression of differentiation of 3T3-L1 preadipocytes into adipocytes (Oil Red O staining); format: cell-based, mouse; conditions: camphene 0.1, 1, 10, 50 and 100 μM, 14 days
Method: Mouse 3T3-L1 cells were used to investigate the effect of camphene on differentiation and growth of adipocytes. The preadipocytes, 3T3-L1 cells, were seeded on a 12-well plate and cultured to confluency using Dulbecco's modified Eagle's medium (DMEM) containing 1% penicillin-streptomycin, 1% nonessential amino acid and 10% fatal bovine serum (FBS), in a 5% CO2 incubator at 37° C. The 3T3-L1 cells grown to confluency were cultured for 2 days in a medium containing MDI (0.5 mM isobutylmethylxanthine, 1 μM dexamethasone and 1 μg/mL insulin) to differentiate them into adipocytes. Then, the cells were further cultivated in DMEM containing 1 μg/mL insulin to differentiate them into mature adipocytes. The cells were further cultured for 10 more days while replacing DMEM every other day to obtain fully differentiated adipocytes. From the first day when MDI was added to the 3T3-L1 cells, camphene was treated at concentrations of 0.1, 1, 10, 50 and 100 μM with 2-day intervals. (±)-Camphene purchased from Sigma-Aldrich was used after being dissolved in DMSO. Only DMSO was added to the negative control group. […] In order to measure the level of triglyceride contained in the differentiated 3T3-L1 cells, the stained lipid droplets were dissolved in 1 mL of isobutanol and OD value was measured at 600 nm.

C57BL/6J mice [4] = test: Obesity-related biochemical indices in blood (serum) of high-fat diet mice; format: in vivo, mouse; conditions: 10 weeks
Method: as §1, with “Sigma-Aldrich.” for “Sigma-Aldrich. [table]”, “serum. Total cholesterol, triglyceride and glucose levels in the serum were measured twice for each using a commercially available kit (Bio Clinical system), and insulin level was measured by ELISA using a mouse insulin kit (Shibayaki, Japan). Lipids were extracted from the liver tissue according to Folch et al.'s method. After adding 1 mL of distilled water to 0.25 g of liver tissue, the liver tissue was homogenized using a Polytron homogenizer (IKA-Werke GmbH & Co., Ultra-Turrax, Staufen, Germany). After adding 5 mL of chloroform:methanol solution (2:1, v/v) to the homogenate and mixing well, the mixture was centrifuged at 1000×g for 10 minutes. After adding 2 mL of chloroform:methanol solution (2:1, v/v) again to the supernatant, the same procedure was repeated to completely separate the lipid components of the liver. After adding 3 mL of chloroform:methanol:0.05% CaCl2 (3:48:47, v/v/v) solution to the remaining pellets and mixing well for 1 minute, followed by centrifugation at 1000×g for 10 minutes, the resulting pellets were completely dried with nitrogen gas. The dried lipids were dissolved in 1 mL of methanol and then analyzed. The same kit (Bio Clinical system) as the one used for the serum analysis was used to measure the triglyceride level of the liver tissue.” for “serum.”

[5] = liver tissue, camphene-administered group
[6] = blood, camphene-administered group

C=C1C2CCC(C2)C1(C)C (racemic) [camphene]
lower accumulated body weight gain as compared to HFD control group (C57BL/6J mice [1]): 58% | lower final body weight as compared to HFD control group (C57BL/6J mice [1]): 33% | lower epididymal fat weight per body weight as compared to HFD (C57BL/6J mice [1]; P<0.001): 46% | lower mesenteric fat weight per body weight as compared to HFD (C57BL/6J mice [1]; P<0.001): 61% | lower perirenal fat weight per body weight as compared to HFD (C57BL/6J mice [1]; P<0.001): 76% | lower retroperitoneal fat weight per body weight as compared to HFD (C57BL/6J mice [1]; P<0.001): 48% | lower total visceral fat weight per body weight as compared to HFD (C57BL/6J mice [1]; P<0.001): 52% | growth of Gram-positive bacteria, Gram-negative bacteria and fungi [2]: inhibiting growth | IL-6 gene expression in visceral fat tissue (IL-6): decreased expression of TNFα and IL-6 genes back to the level of the ND group | activity of the inflammation-inducing factor NF-κB (NF-κB): suppressing the activity | lower cholesterol level in the liver tissue as compared to HFD (C57BL/6J mice [3]; 0.2% camphene in high-fat diet): 86% | lower free fatty acid level in the liver tissue as compared to HFD (C57BL/6J mice [3]; 0.2% camphene in high-fat diet): 73% | lower liver weight per body weight as compared to HFD (C57BL/6J mice [3]; 0.2% camphene in high-fat diet): 22% | lower triglyceride level in the liver tissue as compared to HFD (C57BL/6J mice [3]; 0.2% camphene in high-fat diet): 58% | Liver weight (C57BL/6J mice [3]; camphene-administered group): 4.3 ± 0.32^b g/100 g body wt | Cholesterol (C57BL/6J mice [3]; [5]): 10.3 ± 2.6^c μmol/g | Free fatty acid (C57BL/6J mice [3]; [5]): 6.5 ± 0.91^b μEq/g | Triglyceride (C57BL/6J mice [3]; [5]): 14.7 ± 2.3^c μmol/g | PPARγ2 mRNA expression in visceral fat tissue (PPARγ2): significantly decreased expression | TNFα gene expression in visceral fat tissue (TNFα): decreased expression of TNFα and IL-6 genes back to the level of the ND group | C/EBPα mRNA expression in visceral fat tissue (C/EBPα): significantly decreased expression | UCP3 gene expression in visceral fat tissue (UCP3): increased expression | UCP1 gene expression in visceral fat tissue (UCP1): increased expression | aP2 mRNA expression in visceral fat tissue (aP2): significantly decreased expression | differentiation of the preadipocytes (Oil Red O staining) (3T3-L1 cells; FIG. 1a): reduced the differentiation of the preadipocytes in a concentration-dependent manner | OD value (600 nm) of fats stained with Oil Red O (3T3-L1 cells; FIG. 1b): decreased in a concentration-dependent manner | lower arteriosclerotic index as compared to HFD (C57BL/6J mice [4]; 0.2% camphene in high-fat diet): 59% | lower fasting blood sugar level as compared to HFD (C57BL/6J mice [4]; 0.2% camphene in high-fat diet): 10% | lower insulin resistance (IRI) as compared to HFD (C57BL/6J mice [4]; 0.2% camphene in high-fat diet): 40% | lower serum LDL+VLDL cholesterol level as compared to HFD (C57BL/6J mice [4]; 0.2% camphene in high-fat diet): 79% | lower serum free fatty acid level as compared to HFD (C57BL/6J mice [4]; 0.2% camphene in high-fat diet): 86% | lower serum insulin level as compared to HFD (C57BL/6J mice [4]; 0.2% camphene in high-fat diet): 32% | lower serum total cholesterol level as compared to HFD (C57BL/6J mice [4]; 0.2% camphene in high-fat diet): 60% | lower serum triglyceride level as compared to HFD (C57BL/6J mice [4]; 0.2% camphene in high-fat diet): 69% | IRI (insulin resistance index) (C57BL/6J mice [4]; 10^−3 pmol insulin × mmol glucose × L^−2, camphene-administered group): 1.11 ± 0.21^b | Arteriosclerotic index (C57BL/6J mice [4]; (total cholesterol − HDL cholesterol)/HDL cholesterol, camphene-administered group): 0.42 ± 0.03^b | Free fatty acid (C57BL/6J mice [4]; [6]): 197 ± 6.7^c μEq/L | HDL cholesterol (C57BL/6J mice [4]; [6]): 1.02 ± 0.04^c mmol/L | Insulin (C57BL/6J mice [4]; [6]): 0.85 ± 0.23^b ng/mL | LDL + VLDL cholesterol (C57BL/6J mice [4]; [6]): 0.44 ± 0.05^b mmol/L | Total cholesterol (C57BL/6J mice [4]; [6]): 1.55 ± 0.11^b mmol/L | Triglyceride (C57BL/6J mice [4]; [6]): 0.44 ± 0.05^b mmol/L | Glucose (C57BL/6J mice [4]; blood, fasting, camphene-administered group): 7.6 ± 0.51^ab mmol/L
